Measured values reported in US7943338B2, “Autoimmune conditions and NADPH oxidase defects” (Arexis AB, priority 2002, dated 2011).
Entries after “also recorded” stand apart in the source; their conditions may differ.

Legend:
NADPH complex [1] = experiment: Oxygen burst studies, activation of NADPH complex (cell type not stated); format: cell-based; conditions: oxygen burst studies / WST-1 assay
Procedure: (§1) The unsaturated fatty acids C14:1-C24:1 (myristoleic acid, palmitoleic acid, oleic acid, linoleic acid, linolenic acid, 11c-eicosenoic acid, arachidonic acid, erucic acid, and neuronic acid) and squalenee (Sigma) were also tested.
(§2) 10 μL of each of the oils to be tested was added with 9 μL of WST1 to the wells of a 96 well microtitre plate. 10^6 cells/mL (100 μL of 10^7 cells/mL) were added to each well and the color change measured in a spectrophotometer at 450 nm at 37° for 60 minutes (one measurement/min).
10 μL each of the oils to be tested were added to the wells of a 96 well microtitre plate. 50 μL of cytochrome C (4 mg/mL) and […] (50 μL of 10^7 cells/mL) were added to each well and the absorbance measured in a spectrophotometer at 550 nm at 37° C. for 60 minutes (one measurement/minute).

DA rats [2] = experiment: Arthritis-inducing effect of oils injected intradermally at the base of the tail; format: in vivo, Rat (Rattus norvegicus); conditions: oil injected intradermally at base of tail, scored days 12-31, FIG. 10
Excerpt: The arthritis-inducing effects of the oils was examined by injecting the oils intradermally into DA rats. […] Note that p<0.05 for alkanes shorter than C15 compared to C19. All statistics evaluated with student's t-test. N=4 for all groups.

DA rats [3] = experiment: Treatment of experimental allergic encephalomyelitis (EAE) with phytol; format: in vivo, Rat (Rattus norvegicus); conditions: 200 μL phytol at day -10 and day +5; olive oil control; p<0.05; FIG. 16
Procedure: Groups of DA rats were injected at the base of the tail with 200 μL phytol at day -10, day -5, and day +5. Olive oil was used as a control. At day 0, all rats were treated (immunized) with 200 μL SCH (DA spinal cord homogenate, to induce EAE) i.d. at the base of the tail. The rats were then scored according to the following scale for 40 days: • 0=Normal • 1=Tail weakness • 2=Tail paralysis • 3=Tail paralysis and mild […] • 4=Tail paralysis and severe […] • 5=Tail paralysis and paralysis of one limb • 6=Tail paralysis and paralysis of a pair of limbs • 7=Tetra-paresis • 8=Pre-morbid or dead.

DA rats [4] = experiment: Route of administration of phytol in treatment of PIA; format: in vivo, Rat (Rattus norvegicus); conditions: FIG. 17
Procedure: Groups of DA rats were treated with phytol according to one of the following treatment regimens at day −5 and at day +5. All rats were injected with […] (200 μL) at day 0 intradermally at the base of the tail. Phytol was administered to groups of rats as follows: • 25 μL phytol intranasally (i.n.); • 200 μL phytol intraperitoneally (i.p.); • 200 μL phytol intradermally at the base of the tail (i.d.); and • 1 mL phytol per os (p.o.).
The rats were scored from day 9 using the extended scoring system (as discussed previously).

DA rats [5] = experiment: Collagen induced arthritis (CIA) in rats treated with phytol; format: in vivo, Rat (Rattus norvegicus); conditions: FIG. 22
Procedure: DA rats were treated according to one of the following alternatives: (1) 200 μL phytol intra-dermal at the base of the tail at day −10; (2) 200 μL phytol intra-dermal at the base of the tail at day −5; (3) 200 μL phytol intra-peritoneal at day −5 and day +5; or (4) control untreated. CIA was induced in all animals at day 0 by injecting […] of collagen II dissolved in 75 μL 0.1 M Acetic acid and emulsified in 75 μL IFA. The rats were scored from day 10 using the extended scoring system (see above).

DA rats [6] = experiment: Treatment of active PIA with phytol or undecane; format: in vivo, Rat (Rattus norvegicus); conditions: 200 μL i.p. or i.d. at day 21 and day 26; FIG. 23
Procedure: Groups of DA rats were injected with […] at day 0. The […] (150 μL) was injected intra-dermal at the base of the tail. The rats were scored from day 9 using the extended scoring system (see above). Then, the rats were treated at day 21 and at day 26 with one of the following alternatives: (1) 200 μL phytol intra-peritoneal; (2) 200 μL phytol intra-dermal at the base of the tail; (3) 200 μL undecane intra-peritoneal; (4) 200 μL undecane intra-dermal at the base of the tail; or (5) control untreated.

[7] = in vivo; cited from earlier work
DA rats [8] = experiment: Treatment of hexadecane-induced arthritis with hexadecene; format: in vivo, Rat (Rattus norvegicus); conditions: rat, in vivo
Procedure: Groups of DA rats were injected i.d. at the base of the tail as follows: • Hexadecane 200 μL day 0; • Hexadecene 200 μL day 0; • Hexadecene 200 μL day −5, Hexadecane 200 μL day 0; • Olive oil 200 μL day −5, Hexadecane 200 μL day 0; • Hexadecene 200 μL day +5, Hexadecane 200 μL day 0; and • Olive oil day 200 μL +5, Hexadecane 200 μL day 0.
The rats were scored as indicated above. Olive oil was used as a control.

[9] = In vivo distribution of 14C-labeled oils; set-up: species or system Rat (Rattus norvegicus); conditions: for arthritis in rats treated with radioactively-labeled oils: 200 μL i.d. at base of tail, DA rats, FIG. 13; for extent of distribution to the lymph nodes: hexadecane compared with oleic acid
Procedure: [1-14C]-Hexadecane and [1-14C]-Oleic acid were purchased from Amersham. The oils were injected intradermally at the base of the tail in 18 DA rats (200 μL). At day 10, the organs (lymph nodes, spleen, liver and kidney) of three rats from each group were collected. The organs were weighed and homogenized in a total volume of 2 mL PBS and frozen. The same procedure was followed at day 20 and at day 30. 1 mL of the homogenised samples was then added to 10 mL Ready Safe (Beckman) and counted in a beta counter. The distribution of radioactive labelled hexadecane to the lymph nodes was also inspected at earlier time points (day 3, day 6, day 10, and day 13).

[10] = in vivo; cited from earlier work; remark: listed apart in the source
NADPH complex [11] = experiment: Oxidative burst WST-1 assay, E3 rat peritoneal cells; format: cell-based; conditions: peritoneal cells from E3 rat after thioglycolate; FIG. 9A
Procedure: as §1, with “tested. The oils were solubilized by dilution in cyclodextrin (100 mM in PBS).” for “tested.”
5 mL thioglycolate (2.4%) was injected intraperitoneally in E3 rats to elicit recruitment of neutrophils 16 hours before sacrifice. 40 mL PBS+hepes (1%) was injected into the peritoneum and the cell suspension extracted. Red blood cells were lysed with 0.84% NH4Cl, and WBC were washed in PBS and resuspended in PBS at a concentration of about 10^7 cells/mL.
as §2

NADPH complex [12] = target: T1, NADPH complex (Homo sapiens, UniProt P14598); experiment: Oxidative burst WST-1 assay, HL60 cells; format: cell-based; conditions: FIG. 9B
T1 construct: endogenous in cells; host or cells: HL60 cells differentiated with 1.25% DMSO
T1 sequence (P14598 1-390): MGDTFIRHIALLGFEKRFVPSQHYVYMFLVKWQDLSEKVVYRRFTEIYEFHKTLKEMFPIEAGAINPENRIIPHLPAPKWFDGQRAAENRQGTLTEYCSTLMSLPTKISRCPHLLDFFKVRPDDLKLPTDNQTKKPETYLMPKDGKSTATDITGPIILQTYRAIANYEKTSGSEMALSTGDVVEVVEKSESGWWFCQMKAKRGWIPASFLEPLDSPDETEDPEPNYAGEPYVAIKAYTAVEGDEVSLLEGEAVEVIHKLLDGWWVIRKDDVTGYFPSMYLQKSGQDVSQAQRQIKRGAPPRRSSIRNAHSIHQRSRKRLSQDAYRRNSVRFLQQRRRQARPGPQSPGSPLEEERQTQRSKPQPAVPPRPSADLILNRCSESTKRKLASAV
Procedure: The unsaturated fatty acids C14:1-C24:1 (myristoleic acid, palmitoleic acid, oleic acid, linoleic acid, linolenic acid, 11c-eicosenoic acid, arachidonic acid, erucic acid, and neuronic acid) and squalenee (Sigma) were also tested. The oils were solubilized by dilution in cyclodextrin (100 mM in PBS). Human […] cell line HL60 was cultured in Dulbeccos complete medium with Hepes, 10% Fetal calf serum, and Penicillin-Streptomycin. HL60 cells differentiated to neutrophil-macrophages six days after addition of 1.25% DMSO. The cells were spun down at 1200 rpm for 5 minutes and then washed with PBS twice. The cells were then resuspended in PBS to a concentration of about 10^7 cells/mL. 10 μL of each of the oils to be tested was added with 9 μL of WST1 to the wells of a 96 well microtitre plate. 10^6 cells/mL (100 μL of 10^7 cells/mL) were added to each well and the color change measured in a spectrophotometer at 450 nm at 37° for 60 minutes (one measurement/min).

DA rats [13] = experiment: Treatment/prevention of pristane-induced arthritis with undecane; format: in vivo, Rat (Rattus norvegicus)
Procedure: Groups of DA rats were injected intradermally at the base of the tail with 200 μL of the oils as indicated below: • Undecane day −10, […] day 0; • Olive oil day −10, […] day 0; • Undecane day −5, […] day 0; • Undecanol day −5, […] day 0; Olive oil day −5, […] day 0; • Undecane day 5, […] day 0; and • Olive oil day 5, […] day 0.
The rats were scored every other day starting at day 11 according to the extended scoring system where every red or swollen toe or mid foot scored one point, and a red and swollen ankle scored five points, yielding a total of 15 points/limb and 60 points/rat. Olive oil and undecanol were used as controls.

DA and DA.E3chr12 rats = conditions: PIA
Procedure: Arthritic development was monitored in all limbs using a macroscopic scoring system. Briefly, 1 point was given for each swollen or red toe, 1 point for each swollen midfoot, digit, or knuckle, and 5 points for a swollen ankle. The maximum score for a limb was 15 points, and the maximum score for a rat was 60 points.
For administration, 50 mg of DPI was dissolved in 250 mL DMSO/PBS. About 0.5 mL was injected intraperitoneally into rats on day 0, 2, 3, 4, 5, 6, 7, 8, 10, 12, 14, 17, 19, and 21.
Arthritis development was monitored in all limbs.

mice = conditions: daily intraperitoneal 2.8 μmol/kg (880 μg/kg); cited from earlier work

CCCCCCCCCCCCCCCCC [heptadecane]
activation of the NADPH complex (NADPH complex [1]): activate the NADPH complex | arthritis induction (DA rats [2]): induce arthritis

C/C(=C\CO)CCC[C@H](C)CCC[C@H](C)CCCC(C)C [phytol]
additive score and maximum score of EAE, phytol vs control rats (DA rats [3]): significant difference | effect on PIA (DA rats [4]; 25 μL phytol i.n. day -5 and day +5): ameliorative and preventive effects | effect on PIA (DA rats [4]; 200 μL phytol i.d. day -5 and day +5): ameliorating and preventive effect | effect on PIA (DA rats [4]; 200 μL phytol i.p. day -5 and day +5): ameliorative and preventive effects | development of arthritis in CIA rat model (DA rats [5]; 200 μL phytol intra-dermal day -10 or day -5): prevented development of arthritis | development of arthritis in CIA rat model (DA rats [5]; 200 μL phytol intra-peritoneal day -5 and day +5): prevented development of arthritis | effect on active arthritis in PIA rat model (DA rats [6]): effective against active arthritis | arthritis induction [7]: do not

CCCCCCCCCCCCCCCC [hexadecane]
activation of the NADPH complex (NADPH complex [1]): activated the complex | arthritis induction (DA rats [2]): induced arthritis | arthritis-inducing capacity (DA rats [8]): induces arthritis | arthritis in rats treated with radioactively-labeled oils [9]: only the rats injected with hexadecane had arthritis | time of maximum accumulation in the lymph nodes ([9]; FIG. 15): 10 days | time course of accumulation in the lymph nodes ([9]; days 3, 6, 10, 13 and later, FIG. 15): increase in the accumulation of hexadecane in the lymph nodes until day 10; also recorded: slowly decreased | extent of distribution to the lymph nodes [9]: higher extent than oleic acid | distribution of 14C-labeled hexadecane [10]: disseminated predominantly to the lymph nodes | arthritis induction [7]: induce arthritis

CCCCCCCCCCCCCCC [Pentadecane, pentadecane]
activation of the NADPH complex (NADPH complex [1]): did not activate the NADPH complex | arthritis induction (DA rats [2]): did induce arthritis

CCCCCCCCCCC [undecane]
activation of the oxidative burst (WST-1 assay) (NADPH complex [11]): potent activator | activation of the oxidative burst (WST-1 assay) (NADPH complex [12]): potent activator | activation of the NADPH complex (NADPH complex [1]): activated the NADPH complex | arthritis induction (DA rats [2]): did not induce arthritis | additive score and maximum score of PIA, undecane vs olive oil (DA rats [13]; 200 μL i.d. day -5, pristane day 0, p<0.05, FIG. 11B, 11C): significant difference | additive score and maximum score of PIA, undecane vs undecanol (DA rats [13]; 200 μL i.d. day -5, pristane day 0, p=0.05 additive, p<0.05 maximum): significant difference | arthritis score / preventive effect, undecane day +5 compared with day -10 or day -5 (DA rats [13]; 200 μL i.d., pristane day 0): slightly higher score; also recorded: did not show as significant a preventive effect as at day −10 or at day −5 | effect on active arthritis in PIA rat model (DA rats [6]): effective against active arthritis

c1ccc2c(c1)[I+]c1ccccc1-2 [DPI, diphenyleneiodonium chloride]
severity of arthritis (DA and DA.E3chr12 rats; DPI 1.25 μmol/kg i.p. on days 0-21, FIG. 6): increased severity of arthritis | accumulated arthritis scores (DA and DA.E3chr12 rats; DPI-treated vs control rats, FIG. 7): greater accumulated arthritis scores than control rats | reduction of arthritis (mice): 50%

CCCCCCCCCCCCCCCCCC [octadecane]
activation of the NADPH complex (NADPH complex [1]): activate the NADPH complex | arthritis induction (DA rats [2]): induce arthritis

CCCCCCCC/C=C\CCCCCCCC(=O)O [oleic acid]
arthritis in rats treated with radioactively-labeled oils [9]: does not induce arthritis | extent of distribution to the lymph nodes [9]: not distributed to the lymph nodes to as high an extent as the hexadecane
